Results published in article PMC8903780, “Therapeutic efficacy of an injectable formulation of purinostat mesylate in SU-DHL-6 tumour model” (Annals of Medicine, 2022).

Assays:
SU-DHL-6 cells = experiment: Annexin V-FITC/PI flow cytometry apoptosis assay; type: cell-based, human; conditions: 6 nM, 48 h
Procedure: The pro-apoptotic effect of the PM/HP-β-CD complex on SU-DHL-6 cells was investigated by flow cytometry. […] cells in good condition were collected and inoculated in the six-well plate with 2⋄10^5 cells per well. After being cultured for 24 h, cells were treated with PM and PM/HP-β-CD inclusion at 3 nM and 6 nM, using LBH589 at 6 nM as the positive control. The cells without drug treatment were the negative control. After 48 h incubation, the cells were then processed by annexin V-FITC/PI staining as the manufacturer’s instructions (KeyGen, 100 assays).

[1] = test system: human double-hit lymphoma SU-DHL-6 xenograft tumours; type: in vivo; conditions: positive control groups, dose column – (RTX 10 mg/kg)
Procedure: To better determine the anti-tumour activity of the PM/HP-β-CD complex, the SU-DHL-6 cell line xenografts were established in immunodeficiency mice. The NOD/SCID mice were subcutaneously inoculated 7 × 10^6 cells per mouse. […] A mimic of HyperCVAD regimen, standard chemotherapy for B cell lymphoma ([22],[23]), especially aggressive subtypes, for example, double-hit lymphoma, was set as a positive control group for comparison (Table 2). Satellite groups were set up in the 10 mg/kg group, 20 mg/kg group, and the Hyper-CVAD group. Animals in the satellite groups were not sacrificed at the end of the treatment and underwent long-term treatment for further investigation. In the survival study, the animal mortality criterion was that the tumour volume reached 3000 mm^3 or the individual animal died, and the animal survival time was statistically analysed.
When the experimental period was over, the tumour was weighed and photographed, the main organs and tumours were collected, fixed, and embedded in paraffin for Histological and immunohistochemical analysis.

Cc1[nH]c2ccccc2c1CCNCc1ccc(/C=C/C(=O)NO)cc1 [LBH589, reference compound]
apoptotic SU-DHL-6 cells (SU-DHL-6 cells): 60.1%
RTV ([1]; 14 days): 26.54
Tumour volume T/C% ([1]; 14 days): 101.83%
Tumour weight (g) X ± SD ([1]; 14 days): 3.81 ± 1.08 g
Tumour weight Inhibition (%) ([1]; 14 days): 22.72%
Tumour volume (mm^3) X ± SD Begin ([1]; begin of treatment): 152.7 ± 30.6 mm^3
Tumour volume (mm^3) X ± SD End ([1]; end of 14 days treatment): 4015.5 ± 1048.0 mm^3
Number End/begin ([1]; regimens Table 2, 14 days): 7/7
